Earlier results, collected in publication PMC10338470, “Phase 1 study of GSK3368715, a type I PRMT inhibitor, in patients with advanced solid tumors” (British Journal of Cancer, 2023).

Tested on: adenoid cystic carcinoma
Design: method as in doi:10.1016/j.annonc.2020.08.651
Settings: patients with adenoid cystic carcinoma ref [18]; cited from earlier work

Nc1nc2cc(CC[C@H]3C[C@@H](n4ccc5c(N)ncnc54)[C@H](O)[C@@H]3O)ccc2cc1Br [JNJ64619178]
Partial response rate: 13%
